Consider 4 molecules from patent US20130041023A1, “Composition for Preventing or Treating Rotavirus Infection Comprising Licorice Extract” (priority 2010, published 2013).

Data set [1] relates to bovine rotavirus NCDV (G6P[1]). The data set can be described thus: Virucidal effect against bovine rotavirus NCDV (sample pre-reacted with virus, neutral red readout in TF-104 cells). Format: cell-based. How it is done: (§1) In order to the CPE (cytopathic effect) reduction effects and virucidal effects of the compounds separated from licorice on bovine rotavirus NCDV (G6P[1]) and porcine rotavirus KJ205 (G5P[7]), the following in vitro experiment was performed using the fetal rhesus monkey kidney cell line TF-104.
First, TF-104 cells were added to a 96-well microplate at a density of 4×10^4 cells/well and cultured with alpha-MEM medium (penicillin 100 units, […], 5% FBS). When the TF-104 cells formed a monolayer, the cells were washed twice with alpha-MEM containing only an antibiotic. Each of NCDV and KJ205 was diluted to an MOI of 0.01 and placed in EP tubes. […] Then, the medium was removed, […] solution (1% glacial acetic acid, 49% DDW, 50% EtOH) was added to each well, and after 15 minutes, the absorbance at 540 nm was measured. The virucidal effects (inhibition %) of the inventive compounds separated from licorice compared to the non-infected+non-administered control group and the infected+non-administered control group were calculated using the following equation 1, and the results of the calculation are shown in Table 1 below. […]
(§2) In the above equation, the O.D value means the absorbance measured at 540 nm.

Data set [2] has as its system porcine rotavirus KJ205 (G5P[7]). The data set can be described thus: Virucidal effect against porcine rotavirus KJ205 (sample pre-reacted with virus, neutral red readout in TF-104 cells). It counts as cell-based. The conditions noted are these: for pEC50: TF-104 cells; for virucidal effect, result in words: bovine and/or porcine rotavirus as worded. How it is done: as §1
First, TF-104 cells were added to a 96-well microplate at a density of 4×10^4 cells/well and cultured with alpha-MEM medium (penicillin 100 units, […], 5% FBS). When the TF-104 cells formed a monolayer, the cells were washed twice with alpha-MEM containing only an antibiotic. Each of NCDV and KJ205 was diluted to an MOI of 0.01 and placed in EP tubes. Each of the licorice extract and the polyphenolic compounds, diluted with dimethylsulfoxide (DMSO), was placed in each of the tubes at varying concentrations and then allowed to react at 4° C. for 1 hour. After 1 hour, the reaction material was inoculated into the washed TF-104 cells in such a manner that one sample concentration was inoculated into 3 wells (hereinafter referred to as “sample-treated groups”). Meanwhile, a non-infected+non-administered control (cell group not infected with NCDV or KJ205 and not treated with the compound) and an infected+non-administered control (virus control; a cell group infected with NCDV or KJ205, but not treated with the compound) were allowed to react under the same conditions for 1 hour, and then inoculated into the TF-104 cells, which were then incubated at 37° C. for 1 hours. After 1 hour, the medium was completely removed from the plate, which was then washed once with PBS. Then, […] medium containing 1 mg/mL of trypsin and antibiotic were dispensed into each well of the plate and incubated at 37° C. for 5-6 days. In the case of the infected +non-administered control group, incubation was performed for 5-6 days until the cytopathic effect (CPE) of the virus clearly appeared. […] After 5-6 days of the incubation, in order to examine the viability of the cells, […] solution (Sigma, UK) was added to each well of the place and allowed to react at 37° C. for 2 hours. Then, the medium was removed, […] solution (1% glacial acetic acid, 49% DDW, 50% EtOH) was added to each well, and after 15 minutes, the absorbance at 540 nm was measured. The virucidal effects (inhibition %) of the inventive compounds separated from licorice compared to the non-infected+non-administered control group and the infected+non-administered control group were calculated using the following equation 1, and the results of the calculation are shown in Table 1 below.
Inhibition %=(O.D) value of sample-treated group−(O.D) value of infected+non-administered control/(O.D) value of non-infected+non-administered control−(O.D) value of infected+non-administered control×100 [Equation 1]
as §2

Data set [3] can be described thus: Cytotoxicity (CC50) in TF-104 cells. Format: cell-based. Particulars: rhesus monkey, TF-104 cells (fetal rhesus monkey kidney cell line). As to the method: In order to the CPE (cytopathic effect) reduction effects and virucidal effects of the compounds separated from licorice on bovine rotavirus NCDV (G6P[1]) and porcine rotavirus KJ205 […][7]), the following in vitro experiment was performed using the fetal rhesus monkey kidney cell line TF-104. First, TF-104 cells were added to a 96-well microplate at a density of 4×10^4 cells/well and cultured with alpha-MEM medium (penicillin 100 units, […], 5% FBS). When the TF-104 cells formed a monolayer, the cells were washed twice with alpha-MEM containing only an antibiotic. Each of NCDV and KJ205 was diluted to an MOI of 0.01 and placed in EP tubes. Each of the licorice extract and the polyphenolic compounds, diluted with dimethylsulfoxide (DMSO), was placed in each of the tubes at varying concentrations and then allowed to react at 4° C. for 1 hour. After 1 hour, the reaction material was inoculated into the washed TF-104 cells in such a manner that one sample concentration was inoculated into 3 wells (hereinafter referred to as “sample-treated groups”). Meanwhile, a non-infected+non-administered control (cell group not infected with NCDV or KJ205 and not treated with the compound) and an infected+non-administered control (virus control; a cell group infected with NCDV or KJ205, but not treated with the compound) were allowed to react under the same conditions for 1 hour, and then inoculated into the TF-104 cells, which were then incubated at 37° C. for 1 hours. After 1 hour, the medium was completely removed from the plate, which was then washed once with PBS. Then, […] medium containing 1 mg/mL of trypsin and antibiotic were dispensed into each well of the plate and incubated at 37° C. for 5-6 days. In the case of the infected +non-administered control group, incubation was performed for 5-6 days until the cytopathic effect (CPE) of the virus clearly appeared. […] After 5-6 days of the incubation, in order to examine the viability of the cells, […] solution (Sigma, UK) was added to each well of the place and allowed to react at 37° C. for 2 hours. Then, the medium was removed, […] solution (1% glacial acetic acid, 49% DDW, 50% EtOH) was added to each well, and after 15 minutes, the absorbance at 540 nm was measured. The virucidal effects (inhibition %) of the inventive compounds separated from licorice compared to the non-infected+non-administered control group and the infected+non-administered control group were calculated using the following equation 1, and the results of the calculation are shown in Table 1 below.

Data set [4] relates to porcine rotavirus KJ205 (G5P[7]). The data set can be described thus: CPE inhibition effect, porcine rotavirus KJ205 (TF-104 cells treated after virus inoculation). Format: cell-based. Particulars: for pEC50: TF-104 cells; for selectivity ratio: rhesus monkey, read-out: S.I. (selective index, CC50/EC50). As to the method:
In order to the CPE (cytopathic effect) reduction effects and virucidal effects of the compounds separated from licorice on bovine rotavirus NCDV (G6P[1]) and porcine rotavirus KJ205 […][7]), the following in vitro experiment was performed using the fetal rhesus monkey kidney cell line TF-104. Inhibition %=(O.D) value of sample-treated group-(O.D) value of infected+non-administered control/(O.D) value of non-infected+non-administered control-(O.D) value of infected+non-administered control×100 [Equation 1] In the above equation, the O.D value means the absorbance measured at 540 nm. Meanwhile, in order to examine the inhibitory effects of the compounds separated from licorice on the CPE of bovine rotavirus NCDV (G6P[1]) and porcine rotavirus KJ205 […][7]), […] were washed twice with alpha-MEM containing only an antibiotic, after which the viruses were inoculated into the TF-104 cells and incubated at 37° C. for 1 hour. After 1 hour, the inoculated virus liquids were completely removed, the virus-inoculated TF-104 cells were treated with varying concentrations of the licorice extract and the polyphenolic compounds. Further, the cytopathic effect inhibition (inhibition %) of the compounds separated from licorice were calculated using equation 1 above in the same manner as described above, and the results of the calculation are shown in Table 1 below.

Setting [5] is: Virucidal effect, KJ205 (G5P[7]).
Setting [6] is: CPE inhibition effect section, KJ205 (G5P[7]), read-out: CC50.

Structures are written as SMILES. pEC50: −log10 of the molar value. Like-named read-outs stand apart in the source and are kept apart here.

For the molecule `COc1c(CC=C(C)C)c(O)cc2c1CC(c1ccc(O)cc1O)CO2` (stereo not drawn) [Compound 4, glyasperin C], the pEC50 in data set [1] (Rotavirus A, TF-104 cells, read-out: EC50 (50% concentration from inhibition concentration)) was 4.58; in data set [2] (setting [5]), 4.73. Besides, the selectivity ratio in data set [1] (rhesus monkey, read-out: S.I. (selective index, CC50/EC50)) is 1.5; in data set [2] (rhesus monkey, Virucidal effect, KJ205 (G5P[7]), read-out: S.I. (selective index, CC50/EC50)), 2.1. Moreover, the “virucidal effect, result in words” value in data set [2] is “selective virucidal effects against porcine rotavirus”. Besides, the CC50 in data set [3] (Virucidal effect section, NCDV (G6P[1]) columns, read-out: CC50 (50% concentration from cytotoxic concentration)) stood at 39.1 µM.
Regarding `O=C(/C=C/c1ccc(O)cc1)c1ccc(O)cc1O` [Compound 1, isoliquiritigenin], in data set [4], the pEC50 was 4.45 and the selectivity ratio came out at 3.9. Moreover, the CC50 in data set [3] (setting [6]) was 138 µM.
Take `COc1c(CC=C(C)C)c(O)cc2oc(-c3ccc(O)cc3O)cc12` [Compound 3, licocoumarone]: the melting point lay within 183 to 185 °C. This molecule showed a pEC50 in data set [2] (setting [5]) of 4.58. The “virucidal effect, result in words” value in data set [2] was “good inhibitory activities against bovine and porcine rotaviruses”. In data set [4], the pEC50 was 4.58 and the selectivity ratio was determined as 2.3. In data set [3] (setting [6]), the CC50 came to 59.6 µM.
Regarding `COc1cc(O)ccc1C(=O)/C=C/c1ccc(O)cc1` [Compound 2, 2-methoxyisoliquiritigenin], in data set [4], the pEC50 is 4.62 and the selectivity ratio worked out at 11.7. Besides, the CC50 in data set [3] (setting [6]) amounted to 280 µM.
